Test results published in ChEMBL document CHEMBL1201862, “PubChem BioAssay data set” (2004).
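Where inhibition never reached the appropriate level, the endpoint shown equals the highest concentration tested. Otherwise, values were interpolated linearly from a five-concentration, 48-hour dose response in 96-well plates. GI50: concentration for 50% inhibition of growth.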 Activity calls are given as the source filed them. No stated cut-off is given here; in the data, active = GI50 up to about 1.1 µM and inactive = higher.

Key:
Test in all cases: NCI tumour cell line growth inhibition, 48 h
XF498 = system: XF498
SF-295 = system: SF-295
DMS-273 = system: DMS-273
KM-20L2 = system: KM-20L2
ACHN = system: ACHN
A549 = system: A549
DMS-114 = system: DMS-114
HCT-15 = system: HCT-15
OVCAR-8 = system: OVCAR-8
HOP-18 = system: HOP-18
NCI-H23 = system: NCI-H23
DLD-1 = system: DLD-1
NCI-H226 = system: NCI-H226
SW-620 = system: SW-620
SK-MEL-2 = system: SK-MEL-2
SNB-78 = system: SNB-78
SR = system: SR
T47D = system: T47D
MDA-N = system: MDA-N
DU-145 = system: DU-145

Compound	GI50 (XF498)	GI50 (SF-295)	GI50 (DMS-273)	GI50 (KM-20L2)	GI50 (ACHN)	GI50 (A549)	GI50 (DMS-114)	GI50 (HCT-15) [µM]	GI50 (OVCAR-8)	GI50 (HOP-18)	GI50 (NCI-H23)	GI50 (DLD-1)	GI50 (NCI-H226)	GI50 (SW-620)	GI50 (SK-MEL-2)	GI50 (SNB-78)	GI50 (SR)	GI50 (T47D)	GI50 (MDA-N)	GI50 (DU-145)
CCOC(=O)C(=O)NC12CC3CC(CC(C3)C1)C2	> 100 µM (inactive)	> 100 µM (inactive)	> 100 µM (inactive)	> 100 µM (inactive)	> 100 µM (inactive)	> 100 µM (inactive)	> 100 µM (inactive)	> 100	> 100 µM (inactive)	> 100 µM (inactive)	> 100 µM (inactive)	> 100 µM (inactive)	> 100 µM (inactive)	> 100 µM (inactive)	> 100 µM (inactive)	–	–	–	–	–
CN(C)CCNC(=O)c1cc(Cl)cc2cc3ccccc3nc12	0.966 µM (active)	0.492 µM (active)	0.733 µM (active)	0.422 µM (active)	–	0.557 µM (active)	0.792 µM (active)	0.755	0.542 µM (active)	6.44 µM (inactive)	1.39 µM (inactive)	0.652 µM (active)	0.843 µM (active)	0.519 µM (active)	1.98 µM (inactive)	1.97 µM (inactive)	–	–	–	–
CCOC(=O)/C=C/c1c[nH]c(C(=O)OCC)c1	> 95.1 µM (inactive)	> 100 µM (inactive)	> 100 µM (inactive)	> 100 µM (inactive)	–	> 100 µM (inactive)	> 100 µM (inactive)	> 100	> 100 µM (inactive)	> 100 µM (inactive)	> 100 µM (inactive)	> 100 µM (inactive)	> 100 µM (inactive)	> 100 µM (inactive)	> 100 µM (inactive)	> 86.1 µM (inactive)	–	–	–	–
O=C(OCc1ccccc1)OOC(=O)OCc1ccccc1	–	> 100 µM (inactive)	–	> 100 µM (inactive)	> 100 µM (inactive)	> 100 µM (inactive)	> 100 µM (inactive)	> 100	–	–	> 100 µM (inactive)	> 100 µM (inactive)	–	> 100 µM (inactive)	> 100 µM (inactive)	> 100 µM (inactive)	> 100 µM (inactive)	–	–	–
C=C1C[C@@H](O)C[C@@]2(C)C[C@@H]3OC(=O)C(=C)[C@@H]3C[C@H]12	0.678 µM (active)	15.3 µM (inactive)	5.35 µM (inactive)	5.83 µM (inactive)	–	23 µM (inactive)	8.73 µM (inactive)	4.42	16 µM (inactive)	3.98 µM (inactive)	15.9 µM (inactive)	3.85 µM (inactive)	14 µM (inactive)	5.42 µM (inactive)	11.9 µM (inactive)	7.69 µM (inactive)	–	–	–	–
COC(=O)C1C(O)C(C)C(O)C(C)(O)/C=C\C=C(C)C(=O)Nc2c(C)c(OC(C)=O)c3c(c2O)C(=O)C(C)=C2OCOC(=C23)C(C)=CC(C)(O)C(O)C(C)C1OC(C)=O (configuration not stated)	–	80.4 µM (inactive)	44 µM (inactive)	33.7 µM (inactive)	–	> 100 µM (inactive)	16.1 µM (inactive)	35.5	49.3 µM (inactive)	93.1 µM (inactive)	24.4 µM (inactive)	24.7 µM (inactive)	63.5 µM (inactive)	38.3 µM (inactive)	19.6 µM (inactive)	44.6 µM (inactive)	–	–	–	–
COC(=O)C(Cc1ccc(N(C)C)cc1)(NC(=O)c1ccccc1)P(=O)(OC)OC (configuration not stated)	> 100 µM (inactive)	> 100 µM (inactive)	> 100 µM (inactive)	> 100 µM (inactive)	> 100 µM (inactive)	> 100 µM (inactive)	> 100 µM (inactive)	> 100	> 100 µM (inactive)	–	> 100 µM (inactive)	–	> 100 µM (inactive)	> 100 µM (inactive)	> 100 µM (inactive)	–	> 100 µM (inactive)	–	–	–
N/N=C(\C(=O)Nc1c(Cl)cc([N+](=O)[O-])cc1Cl)C(c1cnc2ccc([N+](=O)[O-])cc2n1)[N+](=O)[O-] (configuration not stated)	> 100 µM (inactive)	> 100 µM (inactive)	38.6 µM (inactive)	> 100 µM (inactive)	> 100 µM (inactive)	> 100 µM (inactive)	36.3 µM (inactive)	> 100	> 100 µM (inactive)	–	> 100 µM (inactive)	> 100 µM (inactive)	6.71 µM (inactive)	99.3 µM (inactive)	> 100 µM (inactive)	40.4 µM (inactive)	> 100 µM (inactive)	–	–	–
O=C1C=C/C(=C/[C@H]2SSC=C[C@]23C=CC(=O)C3)C1	–	30.7 µM (inactive)	–	–	18.1 µM (inactive)	22.8 µM (inactive)	–	14.9	25.9 µM (inactive)	–	19.2 µM (inactive)	–	6.41 µM (inactive)	11.9 µM (inactive)	20 µM (inactive)	–	1.75 µM (inactive)	36.1 µM (inactive)	17.5 µM (inactive)	20.2 µM (inactive)
COc1c2c(cc3c(CCc4ccccc4)cc(=O)oc13)CCC(C)(C)O2	–	> 100 µM (inactive)	> 100 µM (inactive)	> 100 µM (inactive)	> 100 µM (inactive)	–	> 100 µM (inactive)	> 100	> 100 µM (inactive)	–	> 100 µM (inactive)	> 100 µM (inactive)	> 100 µM (inactive)	> 100 µM (inactive)	> 100 µM (inactive)	–	> 100 µM (inactive)	–	–	–
